Measurements from patent publication US8952024B2, “Herbicidal pyrimidone derivatives” (E I du Pont de Nemours and Company, priority 2009, dated 2015).

How the values were obtained:
Assay type in all cases: in vivo
[1] = test system: barnyardgrass (Echinochloa crus-galli); experiment: Test A pre-/postemergence plant response
Procedure, shortened: (§1)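 Greenhouse trial, ~10 days. Soil (loam/sand) sprayed preemergence after seeding; emerged plants (1–2 leaf, 2–10 cm) sprayed postemergence in parallel. Response = visual injury vs untreated control, 0–100.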

corn (Zea mays) = experiment: Test A pre-/postemergence plant response
Procedure, shortened: as §1

[2] = test system: giant foxtail (Setaria faberii); experiment: Test A pre-/postemergence plant response
Procedure, shortened: as §1

[3] = test system: large crabgrass (Digitaria sanguinalis); experiment: Test A pre-/postemergence plant response
Procedure, shortened: as §1

[4] = test system: morningglory (Ipomoea spp.); experiment: Test A pre-/postemergence plant response
Procedure, shortened: as §1

[5] = test system: pigweed (Amaranthus retroflexus); experiment: Test A pre-/postemergence plant response
Procedure, shortened: as §1

[6] = test system: velvetleaf (Abutilon theophrasti); experiment: Test A pre-/postemergence plant response
Procedure, shortened: as §1

[7] = test system: wheat (Triticum aestivum); experiment: Test A pre-/postemergence plant response
Procedure, shortened: as §1

[8] = test system: canarygrass (Phalaris minor); experiment: Test B postemergence plant response; settings: for Canarygrass plant response rating (0 to 100 scale): 62 g ai/ha, 0 is no effect
Procedure, shortened: (§2)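 Plants at the 1- to 4-leaf stage (2 to 18 cm tall), grown in pots of peat moss/vermiculite medium with wetting agent and starter nutrients, received postemergence applications of test chemicals. After 13 to 15 days in a greenhouse, injury was rated visually against untreated controls on a 0 (no effect) to 100 (complete control) scale.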

[9] = test system: chickweed (Stellaria media); experiment: Test B postemergence plant response; settings: for Chickweed plant response rating (0 to 100 scale): 62 g ai/ha, 0 is no effect
Procedure, shortened: as §2

[10] = test system: windgrass (Apera spica-venti); experiment: Test B postemergence plant response; settings: for Windgrass plant response rating (0 to 100 scale): 62 g ai/ha, postemergence, 0 is no effect, 100 is complete control; for Plant response rating, Windgrass: Postemergence
Procedure, shortened: as §2

[11] = test system: ducksalad (Heteranthera limosa); experiment: Test B flooded paddy test; settings: for Plant response rating, Flood, Ducksalad: 250 g ai/ha, flooded paddy test, visual rating on 0 to 100 scale (0 no effect, 100 complete control) after 13 to 15 days; for Plant response rating, Ducksalad: Flood (flooded paddy test), 62 g ai/ha, scale of 0 to 100 where 0 is no effect and 100 is complete control, 13 to 15 days
Procedure, shortened: (§3)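 Seedlings reaching 2 leaves are flooded 3 cm deep; test material is delivered to that water, which stays at the same depth. Plants remain in a greenhouse 13–15 days and are then scored by eye versus controls from 0 to 100.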

rice (Oryza sativa) = experiment: Test B flooded paddy test; settings: for Plant response rating, Flood, Rice: 250 g ai/ha, flooded paddy test, visual rating on 0 to 100 scale (0 no effect, 100 complete control) after 13 to 15 days; for Plant response rating, Rice: Flood (flooded paddy test), 62 g ai/ha, scale of 0 to 100 where 0 is no effect and 100 is complete control, 13 to 15 days
Procedure, shortened: as §3

[12] = Postemergence, 125 g ai/ha, 0 to 100 scale where 0 is no effect and 100 is complete control
[13] = Postemergence, 500 g ai/ha, 0 to 100 scale, 0 = no effect, 100 = complete control, approx. ten days
[14] = Preemergence, 125 g ai/ha, 0 to 100 scale, 0 = no effect, 100 = complete control
[15] = Preemergence, 500 g ai/ha, visual injury, 0 to 100 scale (0 no effect, 100 complete control), approx. ten days
[16] = 31 g ai/ha, postemergence, scale 0 to 100, 0 is no effect, 100 is complete control
[17] = postemergence, 100 is complete control, 13 to 15 days
[18] = Postemergence, 125 g ai/ha, scale 0 to 100 (0 no effect, 100 complete control)
[19] = Postemergence, 250 g ai/ha, scale 0 to 100 (0 no effect, 100 complete control)
[20] = 125 g ai/ha, scale 0 to 100 (0 no effect, 100 complete control)
[21] = Postemergence, 31 g ai/ha, 0 to 100 scale (0 no effect, 100 complete control)
[22] = Postemergence, 250 g ai/ha, scale 0 to 100 (0 no effect, 100 complete control), 13 to 15 days
[23] = 31 g ai/ha, 0 to 100 scale (0 no effect, 100 complete control)
[24] = 250 g ai/ha, scale 0 to 100 (0 no effect, 100 complete control), 13 to 15 days
[25] = Postemergence, 500 g ai/ha, visual injury, 0 to 100 scale (0 no effect, 100 complete control), approx. ten days
[26] = Preemergence, 500 g ai/ha, 0 to 100 scale, 0 = no effect, 100 = complete control

COCCCn1c(-c2cccc(C)c2)ncc(C(=O)C2=C(O)CCCC2=O)c1=O [Compound 118, 5-[(2-hydroxy-6-oxo-1-cyclohexane-1-yl)carbonyl]-3-(3-methoxypropyl)-2-(3-methylphenyl)-4(3H)-pyrimidinone]
60: Plant response rating, Crabgrass, Large [3, 14] | Windgrass plant response rating (0 to 100 scale) ([10]; 13 to 15 days)
50: Plant response rating, Foxtail, Giant [2, 15]
95: Chickweed plant response rating (0 to 100 scale) [9, 17] | Plant response rating, Chickweed [9, 18]
100: Plant response rating, Morningglory [4, 12] | Plant response rating, Morningglory [4, 13] | Plant response rating, Pigweed [5, 12] | Plant response rating, Pigweed [5, 13] | Plant response rating, Pigweed [5, 15] | Plant response rating, Velvetleaf [6, 12] | Plant response rating, Velvetleaf [6, 13] | Plant response rating, Chickweed [9, 19] | Plant response rating, Flood, Ducksalad [11] | Plant response rating, Ducksalad [11]
0: Plant response rating, Corn (corn (Zea mays); [12]) | Plant response rating, Corn (corn (Zea mays); [14]) | Plant response rating, Corn (corn (Zea mays); [15]) | Plant response rating, Wheat [7, 12] | Plant response rating, Wheat [7, 14] | Plant response rating, Wheat [7, 15] | Plant response rating, Canarygrass [8, 16] | Canarygrass plant response rating (0 to 100 scale) [8, 17] | Plant response rating, Rice (rice (Oryza sativa))
15: Plant response rating, Canarygrass [8, 19] | Plant response rating, Flood, Rice (rice (Oryza sativa))
70: Plant response rating, Morningglory [4, 15] | Plant response rating, Velvetleaf [6, 14] | Plant response rating, Windgrass [10, 20]
90: Plant response rating, Barnyardgrass [1, 12] | Plant response rating, Barnyardgrass [1, 13] | Plant response rating, Barnyardgrass [1, 15] | Plant response rating, Foxtail, Giant [2, 13] | Plant response rating, Crabgrass, Large [3, 12] | Plant response rating, Crabgrass, Large [3, 13] | Plant response rating, Crabgrass, Large [3, 15] | Plant response rating, Pigweed [5, 14] | Plant response rating, Chickweed [9, 16]
10: Plant response rating, Foxtail, Giant [2, 14] | Plant response rating, Morningglory [4, 14] | Plant response rating, Wheat [7, 13] | Plant response rating, Canarygrass [8, 18]
80: Plant response rating, Foxtail, Giant [2, 12] | Plant response rating, Velvetleaf [6, 15]
30: Plant response rating, Barnyardgrass [1, 14] | Plant response rating, Corn (corn (Zea mays); [13])

COCCCn1c(-c2cccc(Br)c2)ncc(C(=O)C2=C(O)CCCC2=O)c1=O [Compound 140]
5: Plant response rating, Canarygrass [8, 18] | Plant response rating, Canarygrass [8, 22] | Windgrass plant response rating (0 to 100 scale) ([10]; 13 to 15 days) | Plant response rating, Windgrass [10, 20]
0: Plant response rating, Corn (corn (Zea mays); [12]) | Plant response rating, Corn (corn (Zea mays); [14]) | Plant response rating, Corn (corn (Zea mays); [15]) | Plant response rating, Wheat [7, 12] | Plant response rating, Wheat [7, 13] | Plant response rating, Wheat [7, 14] | Plant response rating, Wheat [7, 15] | Canarygrass plant response rating (0 to 100 scale) [8, 17] | Plant response rating, Canarygrass [8, 21] | Plant response rating, Chickweed [9, 21] | Plant response rating, Windgrass [10, 23] | Plant response rating, Rice (rice (Oryza sativa))
90: Plant response rating, Barnyardgrass [1, 12] | Plant response rating, Barnyardgrass [1, 13] | Plant response rating, Foxtail, Giant [2, 13] | Plant response rating, Foxtail, Giant [2, 15] | Plant response rating, Crabgrass, Large [3, 12] | Plant response rating, Crabgrass, Large [3, 13] | Plant response rating, Crabgrass, Large [3, 15] | Plant response rating, Pigweed [5, 12]
80: Plant response rating, Foxtail, Giant [2, 12] | Plant response rating, Pigweed [5, 14] | Plant response rating, Velvetleaf [6, 14]
45: Plant response rating, Chickweed [9, 18]
30: Plant response rating, Morningglory [4, 14] | Plant response rating, Windgrass [10, 24]
60: Plant response rating, Barnyardgrass [1, 14]
75: Plant response rating, Chickweed [9, 22]
85: Plant response rating, Flood, Ducksalad [11]
20: Plant response rating, Corn (corn (Zea mays); [13])
50: Plant response rating, Morningglory [4, 15] | Plant response rating, Ducksalad [11]
70: Plant response rating, Crabgrass, Large [3, 14]
100: Plant response rating, Barnyardgrass [1, 15] | Plant response rating, Morningglory [4, 12] | Plant response rating, Morningglory [4, 13] | Plant response rating, Pigweed [5, 13] | Plant response rating, Pigweed [5, 15] | Plant response rating, Velvetleaf [6, 12] | Plant response rating, Velvetleaf [6, 13] | Plant response rating, Velvetleaf [6, 15]
10: Chickweed plant response rating (0 to 100 scale) [9, 17]
40: Plant response rating, Foxtail, Giant [2, 14] | Plant response rating, Flood, Rice (rice (Oryza sativa))

O=C1CCCC(O)=C1C(=O)c1cnc(-c2cccs2)n(C2CCCCC2)c1=O [Compound 189]
100: Plant response rating, Morningglory [4, 12] | Morningglory plant response rating [4, 25] | Plant response rating, Pigweed [5, 12] | Pigweed plant response rating [5, 25] | Plant response rating, Pigweed [5, 26] | Plant response rating, Velvetleaf [6, 12] | Velvetleaf plant response rating [6, 25] | Plant response rating, Velvetleaf [6, 26] | Plant response rating, Chickweed [9, 18] | Plant response rating, Chickweed [9, 22] | Plant response rating, Flood, Ducksalad [11] | Plant response rating, Ducksalad [11]
98: Plant response rating, Chickweed [9, 21]
90: Plant response rating, Barnyardgrass [1, 12] | Barnyardgrass plant response rating [1, 25] | Plant response rating, Barnyardgrass [1, 26] | Foxtail, Giant plant response rating [2, 25] | Plant response rating, Crabgrass, Large [3, 12] | Crabgrass, Large plant response rating [3, 25]
25: Plant response rating, Windgrass [10, 23]
0: Plant response rating, Corn (corn (Zea mays); [14]) | Plant response rating, Corn (corn (Zea mays); [26]) | Plant response rating, Wheat [7, 12] | Wheat plant response rating [7, 25] | Plant response rating, Wheat [7, 14] | Plant response rating, Wheat [7, 26] | Plant response rating, Canarygrass [8, 21]
10: Plant response rating, Corn (corn (Zea mays); [12]) | Plant response rating, Canarygrass [8, 22]
60: Plant response rating, Foxtail, Giant [2, 26] | Plant response rating, Windgrass [10, 20] | Plant response rating, Flood, Rice (rice (Oryza sativa))
5: Plant response rating, Canarygrass [8, 18]
70: Plant response rating, Pigweed [5, 14] | Plant response rating, Velvetleaf [6, 14]
30: Plant response rating, Foxtail, Giant [2, 14] | Plant response rating, Crabgrass, Large [3, 14]
20: Plant response rating, Barnyardgrass [1, 14] | Plant response rating, Rice (rice (Oryza sativa))
80: Plant response rating, Foxtail, Giant [2, 12] | Plant response rating, Crabgrass, Large [3, 26] | Plant response rating, Morningglory [4, 26] | Plant response rating, Windgrass [10, 24]
40: Corn plant response rating (corn (Zea mays); [25])
